The values below are quoted from earlier work in patent US5922313A, “Antibacterial composition” (Bio-Safe Enterprises, Inc., priority 1998, dated 1999).

Take nonylphenol thoxylate: the virus killing entry was “effective in killing hepatitis B and HIV viruses” with hepatitis B; “effective in killing hepatitis B and HIV viruses” in the series on HIV.
